Reference: ChEMBL document CHEMBL1157539, “Thousands of chemical starting points for antimalarial lead identification” (Nature, 2010)

Test system: Plasmodium falciparum
Assay: GSK_TCMDC: Inhibition of Plasmodium falciparum 3D7 in whole erythrocytes, using parasite LDH activity as an index of growth.
Format: functional, organism-based
Details: Plasmodium falciparum, 3D7

Q: For `COC(=O)Nc1cc(C(F)(F)F)ccc1N1CCC(CNS(=O)(=O)c2ccc(OC)cc2)CC1`, which XC50 is on record?
A: Its XC50 is 249 nM.

Q: How did the XC50 turn out when `NC1CCN(c2nc(NCCc3ccc(O)cc3)nc(NCc3ccccc3-c3ccccc3)n2)CC1` was run?
A: The XC50 was 822 nM.

Q: With `O=C(Nc1cccc(CN2CCN(C(=O)c3cccc(Cl)c3)CC2)c1)c1cccs1` as the compound, how does the XC50 read?
A: The XC50 was 184 nM.

Q: With `O=C1CCCN1CCCNCc1ccc(-c2cccc(-c3nc4cc(F)ccc4[nH]3)c2)cc1` as the compound, how does the XC50 read?
A: The XC50 was 659 nM.

Q: With `O=C(NCc1cccs1)[C@H](Cc1ccccc1)Nc1ccnc(NCCc2ccc(F)cc2)n1` as the compound, how does the XC50 read?
A: The XC50 was 1450 nM.

Q: How did the XC50 turn out when `CN1CCC[C@H]1COc1ccc(CN2CC[C@H](NC(=O)c3ccc(Cl)c(Cl)c3)C2)c2ccccc12` was run?
A: The XC50 was 946 nM.

Q: `Cc1ccc(NC(=O)c2cccc(CN3CCCN(CC4CCCCC4)CC3)c2)cc1F` was tested. Which XC50 did it give?
A: Its XC50 is 596 nM.

Q: For `CN(CCN)Cc1cccc(-c2cccc(-c3nc4cc(F)ccc4[nH]3)c2)c1`, which XC50 is on record?
A: The XC50 was 785 nM.

Q: `CC(c1cccc(S(=O)(=O)NCc2cccc(C(F)(F)F)c2)c1)N1CCC(N2CCCCC2)CC1` (stereo not drawn) was tested. Which XC50 did it give?
A: The XC50 was 695 nM.

Q: `Cc1cccc(C)c1C1CCN(CCCCNC(=O)c2cc3ccccc3[nH]2)CC1` was tested. Which XC50 did it give?
A: Its XC50 is 892 nM.

Q: With `Cc1cc2c3c(N)nc(N)nc3ccc2n1C(C)C` as the compound, how does the XC50 read?
A: The XC50 was 8.52 nM.

Q: `COc1cc(F)c2ncc(Cl)c(CCN3CCC(NCc4ccc5c(c4)OCCO5)CC3)c2c1` was tested. Which XC50 did it give?
A: The XC50 was 469 nM.

Q: Which XC50 does the source give for `NC1CCN(Cc2cccc(-c3ccc(-c4nc5ccccc5[nH]4)cc3)c2)C1` (stereo not drawn) here?
A: The XC50 was 830 nM.

Q: How did the XC50 turn out when `COc1ccc2nccc([C@@H](O)CN3CCC(NCc4nc5ccccc5s4)CC3)c2c1` was run?
A: The XC50 was 927 nM.

Q: `Cc1cc(CN2CC[C@H](NC(=O)c3ccc(Cl)c(Cl)c3)C2)ccc1OCCN1CCNCC1` was tested. Which XC50 did it give?
A: Its XC50 is 944 nM.

Q: How did the XC50 turn out when `COc1ccc(-c2nonc2NC(=O)c2ccc(C(C)(C)C)cc2)cc1OC` was run?
A: Its XC50 is 814 nM.

Q: Which XC50 does the source give for `CCN(CC)CC(O)c1cc(-c2ccc(C)cc2)nc2c(C)cc(C)cc12` (stereo not drawn) here?
A: Its XC50 is 171 nM.

Q: With `CCN(CCCN1CCCCC1)c1cc(C)nc(Nc2cc(Cl)ccc2C)n1` as the compound, how does the XC50 read?
A: The XC50 was 633 nM.

Q: How did the XC50 turn out when `Cc1cccc(-c2nn(-c3ccccc3)c3[nH]c(=O)c(CNC4CCCC4)cc23)c1` was run?
A: Its XC50 is 759 nM.

Q: `COc1ccc(C2c3ccccc3-c3nc(N)nc(N)c3C2C)cc1` (stereo not drawn) was tested. Which XC50 did it give?
A: The XC50 was 241 nM.

Q: How did the XC50 turn out when `CC(NC(=O)c1cc(-c2ccccc2)nc2c1cnn2C(C)C)C1CC1` (stereo not drawn) was run?
A: The XC50 was 1280 nM.

Q: For `NC(=O)COc1c(C2CCN(CCN3CCC(CNC(=O)c4ccc(-c5ccc(C(F)(F)F)cc5)cc4)CC3)CC2)ccc2c1CCCC2`, which XC50 is on record?
A: The XC50 was 969 nM.

Q: `C[C@@H](Oc1cc(-n2cnc3ccc(NC(=O)CCN4CCCCC4)cc32)sc1C(N)=O)c1ccccc1Cl` was tested. Which XC50 did it give?
A: Its XC50 is 991 nM.

Q: How did the XC50 turn out when `COc1cc(Nc2nccc(-c3c(-c4cccc(NC(=O)c5c(F)cccc5F)c4)nn4ncccc34)n2)cc(OC)c1OC` was run?
A: Its XC50 is 32.6 nM.

Q: Which XC50 does the source give for `CCNC[C@H]1CCCN1CCOc1ccc(-n2cnc3cc(-c4ccc(Cl)cc4)sc3c2=O)cc1OC` here?
A: Its XC50 is 808 nM.

Q: `COc1ccc(CN(C)CCCOc2ccc(NC(=O)c3cccc4c(=O)c5cccc(F)c5[nH]c34)cc2)cc1OC` was tested. Which XC50 did it give?
A: Its XC50 is 637 nM.

Q: With `C(=N\Nc1nccc2sc(-c3cccnc3)cc12)/c1ccncc1` as the compound, how does the XC50 read?
A: Its XC50 is 213 nM.

Q: For `CCCCCCCN(CCCCCCC)CCNc1cc(C)nc2ccccc12`, which XC50 is on record?
A: Its XC50 is 339 nM.

Q: For `Cc1cccn2c(=O)c3cc(C(=O)NC(C)c4ccccc4)c(=N)n(CCN4CCOCC4)c3nc12` (stereo not drawn), which XC50 is on record?
A: The XC50 was 823 nM.

Q: For `N#Cc1ccc2c(c1)CCN(CCC1CCC(NC(=O)/C=C/c3ccc4[nH]ccc4c3)CC1)CC2` (stereo not drawn), which XC50 is on record?
A: The XC50 was 1060 nM.

Q: `CN(C)CCOc1ccc(-c2cc(-c3ccc(Cl)c(O)c3)c(-c3ccnc(N)n3)o2)cc1` was tested. Which XC50 did it give?
A: The XC50 was 1320 nM.

Q: How did the XC50 turn out when `O=C(Nc1cccc(CN2CCCN(CC3CC3)CC2)c1)c1ccc(-c2ccccc2)cc1` was run?
A: Its XC50 is 930 nM.

Q: How did the XC50 turn out when `NC1=NC(Cc2ccccc2)N(c2ccc(Cl)cc2)C(N)=N1` (stereo not drawn) was run?
A: The XC50 was 137 nM.

Q: How did the XC50 turn out when `CC1Cc2ccccc2N1S(=O)(=O)c1cccc(C(=O)Nc2nc(-c3ccccn3)cs2)c1` (stereo not drawn) was run?
A: The XC50 was 1320 nM.

Q: For `CNc1nc(Nc2ccccc2C)nc2ccccc12`, which XC50 is on record?
A: The XC50 was 443 nM.

Q: How did the XC50 turn out when `CC[C@@H]([C@@H](Cc1cc2ccccc2s1)C(=O)N[C@@H](CCCCNC(=O)OCc1ccccc1)C(=O)Nc1ccccn1)N(O)C=O` was run?
A: The XC50 was 227 nM.

Q: Which XC50 does the source give for `FC(F)(F)c1ccc2[nH]ccc(=NN=CC=Cc3ccccc3)c2c1` here?
A: Its XC50 is 1020 nM.

Q: How did the XC50 turn out when `O=C(Nc1ccccc1)Nc1cccc(-c2nn3c(OCC4CCCCN4)cccc3c2-c2ccncc2)c1` (stereo not drawn) was run?
A: The XC50 was 858 nM.

Q: `N=C(N)NN=CC(=O)Nc1cc([N+](=O)[O-])cc([N+](=O)[O-])c1` was tested. Which XC50 did it give?
A: Its XC50 is 628 nM.

Q: With `Cc1cc(=NN=Cc2cccc(F)c2)c2ccc(F)cc2[nH]1` as the compound, how does the XC50 read?
A: Its XC50 is 229 nM.

Q: For `COc1cc(CCCON2C(=N)N=C(N)NC2(C)C)cc(OC)c1OC`, which XC50 is on record?
A: Its XC50 is 39.1 nM.

Q: `COc1cc(Cc2cnc(N)nc2N)c2c(c1OC)OC(C)C=C2` (stereo not drawn) was tested. Which XC50 did it give?
A: The XC50 was 1250 nM.

Q: For `Cc1cc2nc(-c3ccc(C(=O)NC4CCN(Cc5ccccc5)CC4)s3)[nH]c2cc1C`, which XC50 is on record?
A: The XC50 was 771 nM.

Q: For `CN1CCN(Cc2c(O)ccc3c(=O)c(Oc4ccc(C(C)(C)C)cc4)c(C(F)(F)F)oc23)CC1`, which XC50 is on record?
A: Its XC50 is 812 nM.

Q: Which XC50 does the source give for `O=C(/C=C/c1ccc(C(F)(F)F)cc1)NCCCCCN1CCCN(C(=O)Nc2ccc(Cl)c(C(F)(F)F)c2)CC1` here?
A: Its XC50 is 202 nM.

Q: `CCCc1c(C(=O)NC2CCC(CN3CCC(c4c[nH]c5ccccc45)CC3)CC2)cnn1-c1c(Cl)cc(Cl)cc1Cl` (stereo not drawn) was tested. Which XC50 did it give?
A: Its XC50 is 820 nM.

Q: How did the XC50 turn out when `O=C(NCc1cccc(F)c1)Nc1ccc(-c2cccc(-c3nc4cc(F)ccc4[nH]3)c2)cc1` was run?
A: The XC50 was 772 nM.

Q: Which XC50 does the source give for `CC(Cc1ccc(NC(=O)CCCc2ccccc2)cc1)NCCc1cccc(Cl)c1` (stereo not drawn) here?
A: The XC50 was 945 nM.
